We go through 22 molecules from patent US10487068B2, “Pyridazine derivatives as RORc modulators” (Genentech, Inc., priority 2015, dated 2019).

This experiment deals with T1, RORc ligand binding domain (Homo sapiens, UniProt P51449).
T1 sequence (P51449 269-508 limits assumed): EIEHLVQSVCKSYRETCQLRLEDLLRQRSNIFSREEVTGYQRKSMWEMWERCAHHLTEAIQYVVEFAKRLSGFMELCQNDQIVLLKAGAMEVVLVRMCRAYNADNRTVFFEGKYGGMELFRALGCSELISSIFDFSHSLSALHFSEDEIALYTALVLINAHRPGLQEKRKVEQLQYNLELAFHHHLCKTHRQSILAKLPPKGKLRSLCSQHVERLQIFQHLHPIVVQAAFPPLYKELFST
The experiment is described as follows: In Vitro RORc Ligand Binding Assay. The settings on record: RORc IC50, radioligand 25-[3H]hydroxycholesterol 6 nM; 0.6 ug/mL RORc receptor; 3 h at 25° C.

As for `CC(C)(O)Cn1cc(-c2cncc([C@@]34CC[C@@H](c5cc(-c6c(F)cccc6F)nnc53)C4(C)C)n2)cn1` [Example 406, 1-(4-(6-((5R,8S)-3-(2,6-difluorophenyl)-9,9-dimethyl-5,6,7,8-tetrahydro-5,8-methanocinnolin-8-yl)pyrazin-2-yl)-1H-pyrazol-1-yl)-2-methylpropan-2-ol], the IC50 (commonly the concentration that gives 50% inhibition) was 7.6 nM. `CC(C)(O)Cn1ccc(-c2cncc([C@@]34CC[C@@H](c5cc(-c6c(F)cccc6F)nnc53)C4(C)C)n2)n1` [Example 407, 1-(3-(6-((5R,8S)-3-(2,6-difluorophenyl)-9,9-dimethyl-5,6,7,8-tetrahydro-5,8-methanocinnolin-8-yl)pyrazin-2-yl)-1H-pyrazol-1-yl)-2-methylpropan-2-ol] gave a half-maximal inhibitory concentration (IC50) of 7.6 nM. To `CC1(C)[C@H]2CC[C@]1(c1nccc(-n3ccnc3)n1)c1nnc(-c3c(F)cccc3F)cc12` [Example 408, (5R,8R)-8-(4-(1H-imidazol-1-yl)pyrimidin-2-yl)-3-(2,6-difluorophenyl)-9,9-dimethyl-5,6,7,8-tetrahydro-5,8-methanocinnoline] belongs 11 nM; to `CC1(C)[C@H]2CC[C@]1(c1ccnc(-c3cnc(=O)[nH]c3)n1)c1nnc(-c3c(F)cccc3F)cc12` [Example 409], 7.8 nM.

Regarding `CC1(C)[C@H]2CC[C@]1(c1cncc(-c3ccnc(OCC(N)=O)c3)n1)c1nnc(-c3c(F)cccc3F)cc12` [Example 410, 2-((4-(6-((5R,8S)-3-(2,6-difluorophenyl)-9,9-dimethyl-5,6,7,8-tetrahydro-5,8-methanocinnolin-8-yl)pyrazin-2-yl)pyridin-2-yl)oxy)acetamide], the IC50 turned out to be 6.3 nM. Take `CC1(C)[C@H]2CC[C@]1(c1cncc(-c3ccn(CC(N)=O)n3)n1)c1nnc(-c3c(F)cccc3F)cc12` [Example 411, 2-(3-(6-((5R,8S)-3-(2,6-difluorophenyl)-9,9-dimethyl-5,6,7,8-tetrahydro-5,8-methanocinnolin-8-yl)pyrazin-2-yl)-1H-pyrazol-1-yl)acetamide]: the 50% inhibitory concentration (IC50) was found to be 8.8 nM.

Regarding `CC1(C)[C@H]2CC[C@]1(c1ccnc(-c3ccnc(CO)c3)n1)c1nnc(-c3c(F)cccc3F)cc12` [Example 412], the IC50 is 7.1 nM.

Molecule `CC1(C)[C@H]2CC[C@]1(c1cncc(-c3ccc(CS(C)(=O)=O)nc3)n1)c1nnc(-c3c(F)cccc3F)cc12` [Example 413] gave an IC50 of 5 nM.

In the case of `CC1(C)[C@H]2CC[C@]1(c1ccnc(-c3ccc(NS(C)(=O)=O)nc3)n1)c1nnc(-c3c(F)cccc3F)cc12` [Example 414, N-(5-(4-((5R,8S)-3-(2,6-difluorophenyl)-9,9-dimthyl-5,6,7,8-tetrahydro-5,8-methanocinnolin-8-yl)pyrimidin-2-yl)pyridin-2-yl)methanesulfonamide], the IC50 was found to be 9.8 nM. `CC(C)(O)c1cnc(-c2nccc([C@@]34CC[C@@H](c5cc(-c6c(F)cccc6F)nnc53)C4(C)C)n2)cn1` [Example 415] yielded an IC50 of 22 nM.

In turn, `C[C@H](O)Cn1ccc(-c2cncc([C@@]34CC[C@@H](c5cc(-c6c(F)cccc6F)nnc53)C4(C)C)n2)n1` [Example 417, (S)-1-(3-(6-((5R,8S)-3-(2,6-difluorophenyl)-9,9-dimethyl-5,6,7,8-tetrahydro-5,8-methanocinnolin-8-yl)pyrazin-2-yl)-1H-pyrazol-1-yl)propan-2-ol] came in with a half-maximal inhibitory concentration (IC50) of 5.6 nM.

With `C[C@@H](O)C(=O)Nc1ccc(-c2nccc([C@@]34CC[C@@H](c5cc(-c6c(F)cccc6F)nnc53)C4(C)C)n2)cn1` [Example 418], the concentration for half-maximal inhibition (IC50) was found to be 10.5 nM. The molecule `CC1(C)[C@H]2CC[C@]1(c1cncc(-c3ccc(N)nc3)n1)c1nnc(-c3c(F)cccc3F)cc12` [Example 419, 5-(6-((5R,8S)-3-(2,6-difluorophenyl)-9,9-dimethyl-5,6,7,8-tetrahydro-5,8-methanocinnolin-8-yl)pyrazin-2-yl)pyridin-2-amine] registered an IC50 of 10.1 nM. To `CC1(C)[C@H]2CC[C@]1(c1cncc(-c3ccc(OCCO)nc3)n1)c1nnc(-c3c(F)cccc3F)cc12` [Example 420, 2-((5-(6-((5R,8S)-3-(2,6-difluorophenyl)-9,9-dimethyl-5,6,7,8-tetrahydro-5,8-methanocinnolin-8-yl)pyrazin-2-yl)pyridin-2-yl)oxy)ethanol] belongs 9.2 nM; to `CC1(C)[C@H]2CC[C@]1(c1cncc(-n3ccncc3=O)n1)c1nnc(-c3c(F)cccc3F)cc12` [Example 421, 6′-((5R,8S)-3-(2,6-difluorophenyl)-9,9-dimethyl-5,6,7,8-tetrahydro-5,8-methanocinnolin-8-yl)-2H-[1,2′-bipyrazin]-2-one], 39.5 nM; to `CC1(C)[C@H]2CC[C@]1(c1cncc(Oc3cnccn3)n1)c1nnc(-c3c(F)cccc3F)cc12` [Example 422], 16 nM. To `C[C@H](O)Cn1ccc(-c2cncc([C@@]34CC[C@@H](c5cc(-c6c(F)cccc6F)nnc53)C4(C)C)n2)n1` [Example 423, (S)-1-(3-(6-((5R,8S)-3-(2,6-difluorophenyl)-9,9-dimethyl-5,6,7,8-tetrahydro-5,8-methanocinnolin-8-yl)pyrazin-2-yl)-1H-pyrazol-1-yl)propan-2-ol] belongs 9.6 nM; to `CC1(C)[C@H]2CC[C@]1(c1cncc(-c3ccn(CCC#N)n3)n1)c1nnc(-c3c(F)cccc3F)cc12` [Example 424, 3-(3-(6-((5R,8S)-3-(2,6-difluorophenyl)-9,9-dimethyl-5,6,7,8-tetrahydro-5,8-methanocinnolin-8-yl)pyrazin-2-yl)-1H-pyrazol-1-yl)propanenitrile], 10.9 nM. Molecule `CNS(=O)(=O)c1cncc([C@@]23CC[C@@H](c4cc(-c5c(F)cccc5F)nnc42)C3(C)C)n1` [Example 425, 6-((5R,8S)-3-(2,6-difluorophenyl)-9,9-dimethyl-5,6,7,8-tetrahydro-5,8-methanocinnolin-8-yl)-N-methylpyrazine-2-sulfonamide] gave a half-inhibitory concentration (IC50) of 11.4 nM. To `CC(C)(O)c1nc(-c2cncc([C@@]34CC[C@@H](c5cc(-c6c(F)cccc6F)nnc53)C4(C)C)n2)oc1Br` [Example 426, 2-(5-bromo-2-(6-((5R,8S)-3-(2,6-difluorophenyl)-9,9-dimethyl-5,6,7,8-tetrahydro-5,8-methanocinnolin-8-yl)pyrazin-2-yl)oxazol-4-yl)propan-2-ol] belongs 12.1 nM.

`CC1(C)[C@H]2CC[C@]1(c1cncc(-c3nc([C@@](C)(O)C(F)(F)F)co3)n1)c1nnc(-c3c(F)cccc3F)cc12` [Example 427, (R)-2-(2-(6-((5R,8S)-3-(2,6-difluorophenyl)-9,9-dimethyl-5,6,7,8-tetrahydro-5,8-methanocinnolin-8-yl)pyrazin-2-yl)oxazol-4-yl)-1,1,1-trifluoropropan-2-ol] showed an IC50 of 15.9 nM.

For the molecule `CC1(C)[C@H]2CC[C@]1(c1cncc(-c3nc([C@](C)(O)C(F)(F)F)co3)n1)c1nnc(-c3c(F)cccc3F)cc12` [Example 428, (S)-2-(2-(6-((5R,8S)-3-(2,6-difluorophenyl)-9,9-dimethyl-5,6,7,8-tetrahydro-5,8-methanocinnolin-8-yl)pyrazin-2-yl)oxazol-4-yl)-1,1,1-trifluoropropan-2-ol], the IC50 came to 15.7 nM.
